Key:
[1] = tested on: P-selectin; test: HL60 cell adhesion to COS cells transfected with P-selectin cDNA; type: cell-based; conditions: at the concentrations tested in these adhesion assays (HL60 and PMN to selectin-transfected COS)
Procedure: COS cells were grown on coverslips in Dulbecco's minimal essential media with 10% fetal calf serum. After 72 hours, polysaccharides were added to the COS cell cultures to achieve final concentrations of 0, 0.1, 1.0, 10.0, 100.0 or 1000.0 μg/ml. Polysaccharides included crude heparin, dermatan sulfate, heparin tetrasaccharide, and heparin hexasaccharide. HL60 cells, a leukocytic cell line, were added to the COS cell cultures 30 minutes after the polysaccharides were added and incubated for 30 minutes. The coverslips were then washed with media to remove unbound cells and COS cells with three or more HL60 cells bound (rosettes) were counted using phase contrast microscopy.
Briefly, subconfluent monolayers were incubated at 37° C. for 2.5 hours with Dulbecco's modified Eagle's medium (DMEM) with 10% NuSerum (Collaborative Research, Bedford, Mass.) containing 10 μg cDNA, 400 μg/mL DEAE-dextran (Sigma), and 100 μM chloroquine diphosphate (Sigma). […] HL60 cell adhesion was quantitated as number of HL60 rosettes (2 or more cells bound) per 100 transfected COS cells. Number of transfected COS was determined using mAbs specific for E-, P-, and L-selectin (see below) followed by secondary reaction with a fluorescein-conjugated anti-immunoglobulin antibody (Cappel, Durham, N.C.). […]

[2] = tested on: P-selectin-Ig; test: LS180 colon cancer cell adhesion to immobilized P-selectin-Ig; type: cell-based; conditions: FIG. 5
Procedure: (§1) The colon carcinoma cell line, LS180, is a useful model for studying selectin-dependent adhesion since it binds to all three selectins. E-, P-, and L-selectin-Ig were immobilized on microwell (Terasaki) plates coated with protein A. Five μl of buffer containing crude heparin, di-, tetra- or hexasaccharide heparin fragments or antibody (as described above) was incubated for 20 minutes at 4° C. Five μl containing 5000 LS180 cells was added for 30 minutes at 4° C. to allow adhesion to occur. The wells were then washed, fixed with glutaraldehyde, and the bound cells counted by microscopic observation.

[3] = tested on: L-selectin-Ig; test: LS180 colon cancer cell adhesion to immobilized L-selectin-Ig; type: cell-based; conditions: FIG. 5
Procedure: as §1

[4] = tested on: E-selectin-Ig; test: LS180 colon cancer cell adhesion to immobilized E-selectin-Ig; type: cell-based; conditions: FIG. 5
Procedure: as §1

[5] = biological target: L-selectin-Ig; test: Competition ELISA, L-selectin-Ig binding to BSA-sLe^x; conditions: for inhibition of L-selectin-Ig binding to BSA-sLe^x (in words): competitive ELISA, FIG. 8
[6] = biological target: P-selectin-Ig; test: Competition ELISA, P-selectin-Ig binding to BSA-sLe^x; conditions: Table 1, P-selectin; approximate IC50 values
Procedure: (§2) Briefly, microtiter plates were coated with neoglycoprotein BSA-sLe^x, BSA-sLe^a, (Chembiomed, Alberta, CAN) or unconjugated BSA (0.11 μg/well) in 50 mM carbonate bicarbonate buffer, pH 9.5. Plates were blocked with 20 mg/ml BSA in ELISA buffer (150 mM NaCl, 20 mM HEPES, 2 mM CaCl2, 0.25 mM thimerosal, pH 7.4). E- and P-selectin-Ig fusion proteins (20 nM) were coincubated in the coated, blocked microtiter wells with serially diluted heparin fragments (typically 0-1000 μg/ml) in ELISA buffer containing 10 mg/ml BSA for three hours at room temperature. […] Color development was stopped in the linear range (typically after 4-16 minutes) using 5 μl 4 NH2 SO4, and endpoint optical density measured at 490 nm.

[7] = tested on: E-selectin-Ig; test: Competition ELISA, E-selectin-Ig binding to BSA-sLe^x
Procedure: as §2

[8] = tested on: P-selectin; conditions: Larsen, et al.; cited from earlier work
[9] = biological target: L-selectin-Ig; conditions: Table 1, L-selectin; footnote: Foxall, et al., supra; cited from earlier work
[10] = tested on: L-selectin-Ig; conditions: 5 mM; cited from earlier work
[11] = tested on: L-selectin-Ig; conditions: 11 mM; cited from earlier work

Compound: O=C(O)C1=C[C@H](O)[C@@H](OS(=O)(=O)O)[C@H](O[C@H]2[C@H](O)[C@@H](NS(=O)(=O)O)C(O)O[C@@H]2COS(=O)(=O)O)O1 (some centres unmarked) [Di, UA2Sα1-4GIcNS6S]
- blocking activity in the COS cell adhesion assays (in words) [1]: little blocking activity
- adhesion of LS180 cells to plates coated with P-selectin-Ig (in words) [2]: no effect
- adhesion of LS180 cells to plates coated with L-selectin-Ig (in words) [3]: no effect
- adhesion of LS180 cells to plates coated with E-selectin-Ig (in words) [4]: no effect
- IC50, inhibition of L-selectin-Ig binding to BSA-sLe^x ([5]; Table 1, L-selectin, approximate IC50 values): > 1000 µg/mL
- inhibition of L-selectin-Ig binding to BSA-sLe^x (in words) ([5]; listed as tris-sulfated heparin disaccharide): some inhibition
- inhibition of L-selectin-Ig binding to BSA-sLe^x (in words) ([5]; listed as trisulfated disaccharide fragment of heparin): somewhat effective
- IC50, inhibition of P-selectin-Ig binding to BSA-sLe^x [6]: > 1000 µg/mL

Compound: O=C(O)C1=C[C@H](O)[C@@H](OS(=O)(=O)O)[C@H](O[C@H]2[C@H](O)[C@@H](NS(=O)(=O)O)[C@@H](O[C@H]3[C@H](O)[C@@H](OS(=O)(=O)O)[C@H](O[C@H]4[C@H](O)[C@@H](NS(=O)(=O)O)C(O)O[C@@H]4COS(=O)(=O)O)O[C@H]3C(=O)O)O[C@@H]2COS(=O)(=O)O)O1 (some centres unmarked) [F4, ΔUA2Sα1-4DGIcNS6Sα1-4LIdoA2Sα1-4DGIcNS6S]
- IC50, inhibition of L-selectin-Ig ([5]; competition ELISA, FIG. 12): 61 µg/mL
- IC50 ([5]; competition ELISA, FIG. 12, read-out: IC50, inhibition of L-selectin-Ig): 46 µM
- activity relative to the size fractionated tetrasaccharide mixture ([5]; competition ELISA, L-selectin-Ig): 2-4 fold
- activity against L-selectin relative to sLe^x in non-cellular assays ([5]; non-cellular assays, F4 vs sLe^x): over 100 fold
- activity against E-selectin-Ig (in words) ([7]; concentrations up to 1 mM): no activity

Compound: CC(=O)N[C@H]1[C@H](O[C@H]2[C@@H](O)[C@@H](CO)O[C@@H](O[C@H]3[C@H](O)[C@@H](O)C(O)O[C@@H]3CO)[C@@H]2O)O[C@H](CO)[C@@H](O[C@@H]2O[C@H](CO)[C@H](O)[C@H](O)[C@H]2O)[C@@H]1O[C@@H]1O[C@@H](C)[C@@H](O)[C@@H](O)[C@@H]1O (some centres unmarked) [LNF-III]
- P-selectin-dependent rosetting of activated platelets to leukocytes (in words) [8]: blocked

Compound: CC(=O)NC1C(O)CC(OC2C(O)C(CO)OC(OC3C(CO)OC(O)C(NC(C)=O)C3OC3OC(C)C(O)C(O)C3O)C2O)(C(=O)O)OC1C(O)C(O)CO (centres unmarked) [sLex, Neu5Acα2-3Galβ1-4(Fucα1-3)GIcNAc, reference compound]
- activity against L-selectin-Ig binding (in words) ([5]; concentrations of up to 1 mM): no measurable activity
- IC50, inhibition of P-selectin-Ig binding to BSA-sLe^x [6]: > 1000 µg/mL
- IC50 ([7]; read-out: IC50, E-selectin-Ig binding to immobilized BSA-sLe^x): 510 ± 60 µM
- IC50, inhibition of L-selectin-Ig binding [9]: 4100 µg/mL
- block of L-selectin-Ig binding to immobilized sLe^x glycolipid [10]: approximately 50%
- block of L-selectin-Ig binding to glycam-1 [11]: approximately 60%

Reference: patent publication US5527785A, “Selectin receptor modulating compositions” (The Regents of the University of California, priority 1993, dated 1996)
